Test results reported in the supplement of paper PMC10307832.

Assays:
Experiment in all cases: relative viability (nuclei count vs DMSO), 5 days (fraction); higher = more cells survive
AZD5582 + Palbociclib = compound: C[C@@H](C(=O)N[C@@H](C1CCCCC1)C(=O)N2CCC[C@H]2C(=O)N[C@@H]3[C@@H](CC4=CC=CC=C34)OCC#CC#CCO[C@@H]5CC6=CC=CC=C6[C@@H]5NC(=O)[C@@H]7CCCN7C(=O)[C@H](C8CCCCC8)NC(=O)[C@H](C)NC)NC [AZD5582] + CC(=O)c1c(C)c2cnc(Nc3ccc(N4CCNCC4)cn3)nc2n(C2CCCC2)c1=O [Palbociclib] (partner 0.5 µM)
Method in brief: (§1)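 A single step with final 0.05% Triton X-100, 1% formaldehyde and 1 ug/ml Hoechst fixed the cells and stained nuclei 5 days after treatment. Lung cancer cell lines in 1536-well plates had been treated by pin tool the day after seeding with one drug alone or a fixed anchor-drug dose plus five library-drug doses (not always all listed) in √10 steps, and nuclei were counted on 4× images. Relative viability is the ratio of nuclei in treated wells to nuclei in vehicle wells, taken as the median of duplicate plates.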

AZD5582 + Crizotinib = compound: C[C@@H](C(=O)N[C@@H](C1CCCCC1)C(=O)N2CCC[C@H]2C(=O)N[C@@H]3[C@@H](CC4=CC=CC=C34)OCC#CC#CCO[C@@H]5CC6=CC=CC=C6[C@@H]5NC(=O)[C@@H]7CCCN7C(=O)[C@H](C8CCCCC8)NC(=O)[C@H](C)NC)NC [AZD5582] + C[C@@H](Oc1cc(-c2cnn(C3CCNCC3)c2)cnc1N)c1c(Cl)ccc(F)c1Cl [Crizotinib] (partner 1 µM)
Method in brief: as §1

[1] = compound: Cn1nnc2c(C(N)=O)ncn2c1=O [Temozolomide] + CC(C)C[C@H](NC(=O)[C@H](Cc1ccccc1)NC(=O)c1cnccn1)B(O)O [Bortezomib] (partner 0.002 µM)
Method in brief: as §1

[2] = compound: Cn1nnc2c(C(N)=O)ncn2c1=O [Temozolomide] + O=C(CCCCCCC(=O)Nc1ccccc1)NO [Vorinostat] (partner 1 µM)
Method in brief: as §1

Row | Cell Line | relative viability (AZD5582 + Palbociclib; first compound 0.001581 µM) | relative viability (AZD5582 + Palbociclib; first compound 0.005 µM) | relative viability (AZD5582 + Palbociclib; first compound 0.01581 µM) | relative viability (AZD5582 + Palbociclib; first compound 0.05 µM) | relative viability (AZD5582 + Crizotinib; first compound 0.001581 µM) | relative viability (AZD5582 + Crizotinib; first compound 0.005 µM) | relative viability (AZD5582 + Crizotinib; first compound 0.01581 µM) | relative viability (AZD5582 + Crizotinib; first compound 0.05 µM) | relative viability ([1]; first compound 0.2 µM) | relative viability ([1]; first compound 0.6325 µM) | relative viability ([1]; first compound 2 µM) | relative viability ([1]; first compound 6.325 µM) | relative viability ([1]; first compound 20 µM) | relative viability ([2]; first compound 0.2 µM) | relative viability ([2]; first compound 0.6325 µM) | relative viability ([2]; first compound 2 µM) | relative viability ([2]; first compound 6.325 µM) | relative viability ([2]; first compound 20 µM)
1 | HCC-366 | 0.347 | 0.319 | 0.322 | 0.43 | 0.476 | 0.517 | 0.56 | 0.635 | 1.07 | 1.07 | 1.1 | 1.08 | 1.06 | 0.443 | 0.349 | 0.307 | 0.315 | 0.351
2 | HCC-827 | 0.481 | 0.47 | 0.492 | 0.529 | 0.885 | 1.02 | 0.926 | 0.898 | 1.2 | 1.1 | 1.02 | 1.05 | 0.32 | 0.637 | 0.785 | 0.817 | 0.876 | 0.169
3 | HOP-62 | 0.297 | 0.46 | 0.453 | 0.379 | 0.781 | 1.05 | 1 | 0.875 | 0.801 | 0.88 | 0.911 | 0.59 | 0.932 | 0.873 | 0.58 | 0.675 | 0.456 | 0.795
4 | IA-LM |  |  |  |  | 0.546 | 0.63 | 0.818 | 0.699 | 0.794 | 0.988 | 1.04 | 0.742 | 0.945 | 0.842 | 1.05 | 0.895 | 0.952 | 1.03
5 | LC-2-ad | 0.465 | 0.535 | 0.46 | 0.543 | 0.457 | 0.454 | 0.384 | 0.391 | 1.17 | 0.984 | 1.02 | 0.945 | 0.945 | 0.824 | 0.717 | 0.726 | 0.733 | 0.668
6 | LCLC-97TM1 | 0.172 | 0.282 | 0.24 | 0.165 |  | 0.269 | 0.338 | 0.257 | 1.48 | 0.594 | 0.749 | 0.68 | 0.687 | 0.98 | 0.763 | 0.659 | 0.514 | 0.628
7 | LCLC-103H | 0.47 | 0.469 | 0.432 | 0.377 | 1.1 | 1.08 | 1.02 | 0.777 | 1.13 | 1.09 | 1.04 | 1.08 | 1.01 | 0.943 | 0.814 | 0.881 | 0.732 | 0.762
8 | LK-2 | 0.553 | 0.738 |  | 0.75 | 0.225 | 0.218 | 0.218 | 0.24 |  |  |  |  |  | 0.345 | 0.296 | 0.386 | 0.188 | 0.237
9 | LOU-NH91 | 0.529 | 0.54 | 0.487 | 0.532 | 0.713 | 0.746 | 0.729 | 0.741 | 0.487 | 0.514 | 0.565 | 0.543 | 0.456 | 0.799 | 0.934 | 1.03 | 0.923 | 0.797
10 | LU99A | 0.455 | 0.465 | 0.412 | 0.534 | 0.548 | 0.685 | 0.501 | 0.672 | 1.28 | 1.17 | 1.07 | 1.06 | 1.01 | 0.501 | 0.548 | 0.419 | 0.388 | 0.551
11 | NCI-H358 | 0.124 | 0.156 | 0.14 | 0.136 | 0.505 | 0.676 | 0.704 | 0.455 |  |  |  |  |  | 0.558 | 0.656 | 0.6 | 0.647 | 0.553
12 | NCI-H522 | 0.963 | 1.02 | 1.11 | 0.912 |  |  |  |  |  |  |  |  |  | 0.762 | 1.02 | 1.02 | 0.973 | 0.92
13 | NCI-H596 |  |  |  |  | 0.902 | 0.279 | 1.03 | 0.1 | 1.04 | 1.02 | 0.97 | 0.908 | 1.07 | 0.683 | 0.652 | 0.58 | 0.585 | 0.689
14 | NCI-H1299 |  |  |  |  | 0.895 | 0.895 | 0.994 | 0.901 | 1.07 | 1.06 | 1.04 | 1.02 | 1.02 |  |  |  |  | 
15 | NCI-H1395 | 0.578 | 0.688 |  | 0.76 |  |  |  |  |  |  |  |  |  | 0.901 | 0.837 | 0.663 | 0.569 | 0.673
16 | NCI-H1563 |  |  |  |  | 0.8 | 0.86 | 0.852 | 0.978 | 0.91 | 0.862 | 0.911 | 0.878 | 0.833 |  |  |  |  | 
17 | NCI-H1648 | 0.264 | 0.311 |  | 0.274 |  |  |  |  |  |  |  |  |  |  | 0.436 | 0.624 | 0.457 | 0.375
18 | NCI-H1792 | 0.629 | 0.715 | 0.624 | 0.776 | 0.903 | 1.01 | 0.908 | 1.08 | 0.969 | 0.988 | 1.01 | 0.641 | 0.953 |  |  |  |  | 
19 | NCI-H1793 | 0.311 | 0.355 | 0.297 | 0.397 |  |  |  |  |  |  |  |  |  |  | 0.847 | 0.758 | 0.692 | 0.503
20 | NCI-H1944 | 0.274 | 0.319 | 0.309 | 0.43 | 0.914 | 1.07 | 1.09 | 1.07 |  |  |  |  |  | 0.557 | 0.561 | 0.541 | 0.474 | 0.517
21 | NCI-H2170 | 0.37 | 0.388 | 0.364 | 0.492 | 1.1 | 1.25 | 1.18 | 1.47 |  |  |  |  |  |  | 0.763 | 0.631 | 0.461 | 0.288
22 | NCI-H2342 | 0.492 | 0.518 | 0.491 | 0.54 |  |  |  |  |  |  |  |  |  | 0.673 | 0.833 | 0.9 | 0.742 | 0.811
23 | SK-MES-1 | 0.286 | 0.32 | 0.332 | 0.291 | 0.992 | 1.02 | 0.941 | 1.04 |  |  |  |  |  | 1.41 | 1.12 | 1.11 | 1.19 | 1.12
24 | SW 900 | 0.443 | 0.566 | 0.531 | 0.435 |  |  |  |  |  |  |  |  |  | 0.741 | 0.498 | 0.569 | 0.373 | 0.344
